These results are taken from US10973794B2, “Dental composition and use” (CALSCIENCE INTERNATIONAL LTD., priority 2015, dated 2021).

The subject of assay [1] is human foreskin fibroblasts (HFFs). Kind of assay: WST-1 Cell Proliferation Assay. It is filed as cell-based. The method, then:
(§1) The following results relate to the analysis of senescence tests on 1,5-Dicaffeoylquinic Acid (1,5-DCQA). FIG. 8 relates to 1,4-DCQA. The experiments were conducted using human foreskin fibroblasts (HFFs).
The WST-1 Cell Proliferation Assay provides a sensitive and accurate assay for cell proliferation and cytotoxicity (cell viability). The WST assay is based on the cleavage of the tetrazolium salt WST-1 to formazan by cellular mitochondrial dehydrogenases. Expansion in the number of viable cells results in an increase in the overall activity of the mitochondrial dehydrogenases in the sample. The augmentation in enzyme activity results in an increase in the amount of formazan dye formed. The formazan dye produced by viable cells was quantified by a multi-well spectrophotometer by measuring the absorbance of the dye solution at 440 nm. The compound provided was tested in the WST assay over a range of dilutions. […] The results of the assay show the standard deviation (SD) for 1,5-DCQA and the control, and the mean values for 1,5-DCQA and the control.
On the technique in general: Tetrazolium assays rely on reduction of a dye to a coloured formazan, in cell work by metabolically active cells.

The subject of assay [2] is p16. Kind of assay: Taqman Real Time-PCR expression of p16 in HFFs with and without H2O2 stress-induced premature senescence. Format: cell-based, human. The procedure: as §1
(§2) In the following experiments, HFFs were challenged for a period of two hours with 150 μM hydrogen peroxide (H2O2), to stimulate premature senescence in the presence and absence of 1,5-DCQA (1/1000 dilution), and subsequently assayed by Taqman Real Time-PCR for the expression of key senescence associated genes.
(§3) The results shown in Table 2 and FIGS. 2 to 7 were generated using the polymerase chain reaction (PCR), wherein the dCt and ddCT values are results used in statistical analysis. The abbreviation dCt relates to “delta cycle threshold” and the abbreviation ddCt relates to “delta delta cycle threshold”. In these experiments, HPRT (hypoxanthine phosphoribosyltransferase, a protein from the HPRT-1 gene) was used as a control.

The test system of assay [3] is Sirtuin 2 (SIRT2). Kind of assay: Taqman Real Time-PCR expression of Sirtuin 2 in HFFs with and without H2O2 stress-induced premature senescence. Format: cell-based, human. As to conditions: without stress, FIG. 6. The procedure:
as §1, §2
(§4) These genes are involved in cell cycle regulation and mitochondrial stress responses. Challenge with a near lethal level of oxidant stress typically induces an increase in SIRT2 and decrease in SIRT3 expression. […] This is indicative of each having a potential for stimulating cell proliferation in the absence of oxidant challenge.
as §3
In general terms: Quantitative PCR measures a nucleic acid by following its amplification.

In assay [4] the test system is Sirtuin 3 (SIRT3). Kind of assay: Taqman Real Time-PCR expression of Sirtuin 3 in HFFs with and without H2O2 stress-induced premature senescence. It is filed as cell-based, human. As to conditions: following oxidant challenge, FIG. 7. The procedure: as §1, §2, §4, §3
For assay [5], the system named is XRCC5. Kind of assay: Taqman Real Time-PCR expression of XRCC5 in HFFs with and without H2O2 stress-induced premature senescence. Format: cell-based, human. As to conditions: with and without 150 μM H2O2, FIG. 4. The method, then:
as §1, §2
XRCC5 is a double strand break repair protein.
as §3

Turning to `O=C(/C=C/c1ccc(O)c(O)c1)O[C@@H]1C[C@](OC(=O)/C=C/c2ccc(O)c(O)c2)(C(=O)O)C[C@@H](O)[C@H]1O` [1,5-DCQA, 1,5-Dicaffeoylquinic Acid], in assay [1] (1/1000 and 2/1000 dilutions), the “effect on cell viability (WST assay)” value is “beneficial to cell viability”. Also, the “Mean (WST-1 assay, absorbance at 440 nm)” value in assay [1] (dilution 1/1000) turned out to be 0.916; in assay [1] (dilution 2/1000), 0.868; in assay [1] (dilution 3/1000), 0.717; in assay [1] (dilution 4/1000) it was 0.363; in assay [1] (dilution 5/1000) it was 0.178; in assay [1] (dilution 6/1000), 0.300. The “Mean (WST-1 assay, absorbance at 440 nm)” value worked out at 0.419 in assay [1] (dilution 7/1000), 0.196 in assay [1] (dilution 8/1000), 0.115 in assay [1] (dilution 9/1000) and 0.069 in assay [1] (dilution 10/1000). In assay [2] (150 μM H2O2, FIG. 2), the “effect on p16 expression following oxidant challenge” value is given as “excellent protection from oxidant challenge”. Also, the “effect on p16 expression in untreated cells” value in assay [2] (no H2O2, FIG. 2) is “no stress effect on untreated cells”. In assay [3], the “change in SIRT2 expression” value was “significant decrease in SIRT2 expression”. In addition, the “change in SIRT3 expression” value in assay [4] is “increase in SIRT3 expression”. Moreover, the “expression of XRCC5 in comparison with the control data set” value in assay [5] is on record as “substantially unaltered expression”.
